# Test results as given in PubChem BioAssay AID1963433 (Molecular Pharmacology Branch, DTP, NCI, 2024).
# Where “and” joins values, the source holds several entries; their conditions need not be identical. Equal values may be shown once.
# Test system: 772245-204-R-J1-PDC complex spheroid growth
# Assay: Anticancer human tumor 772245-204-R-J1-PDC patient-derived rhabdomyosarcoma cell line growth inhibition [Asc]
# Details: for viability, T/C: stronger effect = lower value
# Method in brief: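 Spheroid model: tumor line + HUVEC + hMSC. Single agents and combinations; top conc. at/near clinical Cmax (10 microM if undetermined), half-log dilutions. DMSO stocks at 800-fold test concentration.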
# 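Note: compound exposure lasted seven days.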
# 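Throughout, for viability, T/C: 100% = DMSO vehicle control viability.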
compound,measurement,setting,value
Cc1c(S(C)(=O)=O)c(-c2cc(F)cc(N3CCN(c4ccc(NS(=O)(=O)c5ccc(NC(CCN6CCC(C(=O)OCCCP(=O)(O)O)CC6)CSc6ccccc6)c(S(=O)(=O)C(F)(F)F)c5)cc4)CC3)c2)c(-c2ccc(Cl)cc2)n1C(C)C (stereo unspecified),"viability, T/C",compound 0.1 µM,82.6% [middle of 14 runs]
same,"viability, T/C",compound 0.316 µM,67.3% [middle of 14 runs]
same,"viability, T/C",compound 1 µM,53.8% [middle of 14 runs]
same,"viability, T/C",compound 10 µM,45.4% [middle of 14 runs]
Cc1nc(N2CCC3(CC2)COC(C)C3N)c(CO)nc1Sc1ccnc(N)c1Cl (stereo unspecified),"viability, T/C",compound 0.00949 µM,98.8% and 123% and 100%
same,"viability, T/C",compound 0.03 µM,104% and 119% and 120%
same,"viability, T/C",compound 0.0949 µM,112% and 104% and 89.2%
same,"viability, T/C",compound 0.3 µM,106% and 90.1% and 102%
same,"viability, T/C",compound 0.949 µM,99.9% and 85.1% and 77%
same,"viability, T/C",compound 3 µM,91.5% and 57.5% and 54.3%
same,IC50,curve of compound,> 3000 nM
NC(=O)C(=Cn1cnc(-c2cc(C(F)(F)F)cc(C(F)(F)F)c2)n1)c1cncnc1 + Cc1c(S(C)(=O)=O)c(-c2cc(F)cc(N3CCN(c4ccc(NS(=O)(=O)c5ccc(NC(CCN6CCC(C(=O)OCCCP(=O)(O)O)CC6)CSc6ccccc6)c(S(=O)(=O)C(F)(F)F)c5)cc4)CC3)c2)c(-c2ccc(Cl)cc2)n1C(C)C,IC50,"curve of first compound, second compound 0.1 µM",22 nM
same,IC50,"curve of first compound, second compound 0.316 µM",6.58 nM
same,IC50,"curve of first compound, second compound 1 µM",< 0.949 nM
same,IC50,"curve of first compound, second compound 3.16 µM",< 0.949 nM
same,IC50,"curve of first compound, second compound 10 µM",< 0.949 nM
same,"viability, T/C","second compound 0.1 µM, first compound 0.000949 µM",80.2%
same,"viability, T/C","second compound 0.1 µM, first compound 0.003 µM",72.2%
same,"viability, T/C","second compound 0.1 µM, first compound 0.00949 µM",64%
same,"viability, T/C","second compound 0.1 µM, first compound 0.03 µM",43.2%
same,"viability, T/C","second compound 0.1 µM, first compound 0.0949 µM",29.6%
same,"viability, T/C","second compound 0.1 µM, first compound 0.3 µM",12.6%
same,"viability, T/C","second compound 0.316 µM, first compound 0.000949 µM",58.1%
same,"viability, T/C","second compound 0.316 µM, first compound 0.003 µM",64%
same,"viability, T/C","second compound 0.316 µM, first compound 0.00949 µM",42.1%
same,"viability, T/C","second compound 0.316 µM, first compound 0.03 µM",29.2%
same,"viability, T/C","second compound 0.316 µM, first compound 0.0949 µM",10.3%
same,"viability, T/C","second compound 0.316 µM, first compound 0.3 µM",3.73%
same,"viability, T/C","second compound 1 µM, first compound 0.000949 µM",41.2%
same,"viability, T/C","second compound 1 µM, first compound 0.003 µM",34.8%
same,"viability, T/C","second compound 1 µM, first compound 0.00949 µM",24%
same,"viability, T/C","second compound 1 µM, first compound 0.03 µM",8.43%
same,"viability, T/C","second compound 1 µM, first compound 0.0949 µM",4.25%
same,"viability, T/C","second compound 1 µM, first compound 0.3 µM",1.91%
same,"viability, T/C","second compound 3.16 µM, first compound 0.000949 µM",42.5%
same,"viability, T/C","second compound 3.16 µM, first compound 0.003 µM",27.8%
same,"viability, T/C","second compound 3.16 µM, first compound 0.00949 µM",23.9%
same,"viability, T/C","second compound 3.16 µM, first compound 0.03 µM",2.44%
same,"viability, T/C","second compound 3.16 µM, first compound 0.0949 µM",0.58%
same,"viability, T/C","second compound 3.16 µM, first compound 0.3 µM",0.81%
same,"viability, T/C","second compound 10 µM, first compound 0.000949 µM",32.9%
same,"viability, T/C","second compound 10 µM, first compound 0.003 µM",39.9%
same,"viability, T/C","second compound 10 µM, first compound 0.00949 µM",22.2%
same,"viability, T/C","second compound 10 µM, first compound 0.03 µM",5.99%
same,"viability, T/C","second compound 10 µM, first compound 0.0949 µM",0.9%
same,"viability, T/C","second compound 10 µM, first compound 0.3 µM",0.59%
